Reference: patent publication US11382880B2, “Method for improving digestive health” (Brightseed, Inc., priority 2019, dated 2022)

Key:
[1] = target: T1, HNF4α (Homo sapiens, UniProt P41235); set-up: endogenous in cells; host or cells: T6PNE engineered pancreatic cells; details: Lee, et al. (2013); cited from earlier work
T1 sequence (P41235 1-474): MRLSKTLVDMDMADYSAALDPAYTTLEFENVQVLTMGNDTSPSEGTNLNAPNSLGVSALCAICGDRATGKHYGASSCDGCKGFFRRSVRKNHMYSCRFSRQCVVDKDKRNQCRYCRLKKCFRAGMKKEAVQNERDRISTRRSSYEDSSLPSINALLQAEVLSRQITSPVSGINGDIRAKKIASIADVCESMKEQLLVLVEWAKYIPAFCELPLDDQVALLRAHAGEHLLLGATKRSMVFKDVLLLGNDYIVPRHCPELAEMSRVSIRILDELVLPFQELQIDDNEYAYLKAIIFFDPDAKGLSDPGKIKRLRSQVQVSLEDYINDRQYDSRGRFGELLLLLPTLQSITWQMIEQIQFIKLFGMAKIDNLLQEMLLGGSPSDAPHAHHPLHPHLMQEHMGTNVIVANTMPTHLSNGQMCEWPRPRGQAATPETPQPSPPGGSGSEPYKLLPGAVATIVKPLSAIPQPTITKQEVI

[2] = target: T1, HNF4α; assay: Insulin promoter-reporter assay measuring HNF4α activity (T6PNE engineered pancreatic cell); type: cell-based; set-up: endogenous in cells; host or cells: T6PNE engineered pancreatic cells; details: for HNF4α modulator activity in screening: screening of predicted plant compounds in the HNF4α assay
Protocol: FIG. 1 illustrates a dose-response analysis of N-trans-caffeoyltyramine, N-trans-feruloyltyramine and p-coumaroyltyramine in an assay measuring insulin promoter activity. Dimethylsulfoxide (DMSO) and alverine (20 μM) were used as negative and positive controls, respectively.
The tyramine containing hydroxycinnamic acid amide of this disclosure are analogs of lead compounds identified in traditional screening assays for agents that modulate known signaling pathways. […] While not wishing to be bound by theory, it is believed that the tyramine containing hydroxycinnamic acid amides of this disclosure increase HNF4α activity as a result of higher affinity for the HNF4α binding site than the natural ligand, palmitic acid, which down regulates HNF4α activity. Accordingly, by increasing HNF4α activity, the compounds of this disclosure are of use in improving heal thy digestive function, thereby addressing the underlying pathogenesis of gastrointestinal disorders such as IBD, UC, and CD. Using the composition of this disclosure, health and well-being are improved and promoted.
Given the role of HNF4α in maintaining a healthy metabolism in humans, test compounds were screened for activity as HNF4α agonists (either direct or indirect effects). Using a known insulin promoter-reporter assay, Kiselyuk and colleagues (2010. J. Biomol. Screen 15(6): 663-70), screened a library of compounds for activity to promote insulin activation. […] The OTC promoter is known to be responsive to HNF4α in transient transfection assays (Inoue, et al. (2002) J. Biol. Chem. 277:25257-65).
Plant compounds in the top 10th percentile of similarity to the 18 target structures were selected and compounds predicted to be potential agonists of HNF4α activity given their chemical structural features were screened in the HNF4α assay. […] Due to hydroxyl derivatization of both phenyl rings, N-transcaffeoyltyramine is less lipophilic and therefore expected to be more bioavailable.

[3] = tested on: HNF4α mRNA; assay: HNF4α mRNA levels by quantitative PCR; type: cell-based; details: FIG. 2
Protocol: FIG. 2 illustrates the effect of N-trans-caffeoyltyramine, N-trans-feruloyltyramine and p-coumaroyltyramine on HNF4α mRNA levels as determined by quantitative PCR. DMSO and alverine (20 μM) were used as negative and positive controls, respectively.
Expression of Insulin and HNF4α. RNA was purified using a RNEASY® chromatographic separation and isolation kits (Qiagen), and converted to cDNA using the gScript™ cDNA SuperMix (Quanta Biosciences). Q-PCR was conducted with cDNA corresponding to 2 μg of RNA using an Optic on Real-Time System (MJ Research) and QPCR SuperMix (BioPioneer). See All mRNA values were normalized to 18S rRNA values and are expressed as fold changes over vehicle-treated control.

[4] = tested on: HNF4α; assay: HNF4α expression in the intestine of DIO mice; type: in vivo; details: villi and crypt
Description: FIG. 4 illustrates HNF4α is increased in the intestine of DIO mice treated with NCT.
(§1) Intestine from mice treated with DMSO or N-trans-caffeoyltyramine were examined histologically. Gross morphological appearance was unchanged. […] In both, HNF4α was highly expressed in the crypt, with much less being detectable in the villi (see FIG. 4). […] Paneth cells are specialized secretory cells that play a critical role in defenses against intestinal microbes. To that end, they secrete a variety of antimicrobial peptides. Of note, Paneth cells play an important role in IBD pathogenesis. High fat diet has been reported to reduce the number of Paneth cells, and our studies reproduced that finding (see FIG. 4), but the mechanism by which that occurs has not been understood.

[5] = pH Stability Assessment; type: physicochemical; details: pH 2, 7.4, 8.5 and 10; 37° C.; 0.5 and 72 hours; HPLC peak area at 280 nm
Protocol: pH Stability Assessment. Individual stock solutions were prepared in DMSO at concentrations of 10 mg/mL. Four different buffer solutions were prepared to achieve solutions with a pH of 2, 7.4, 8.5 and 10. For each pH assay, 5 μL of stock solution was added to 245 μL of buffered solution to a 2 mL tube, vortexed and incubated in a 37° C. water bath. At each timepoint, 50 μL aliquots were taken, neutralized and analyzed via HPLC analysis using a DAD detector at 280 nm. The fold change of the peak area at 280 nm was analyzed for the initial and final timepoint, 0.5 and 72 hours, respectively.

[6] = tested on: HNF4α; assay: Intestinal HNF4α expression in C57BL/6 mice after IP dosing; type: in vivo; details: IP twice a day for 14 days
Protocol: Primary Antibodies. HNF4α antibodies were used (#sc-6556, Santa Cruz Biotechnology; Santa Cruz, Calif. and #3113, Cell Signaling Technology; Danvers, Mass.). For fluorescent imaging, samples were incubated with ALEXA FLUOR® 488 green-fluorescent dye or Rhodamine labeled anti-mouse, rabbit or goat and nuclei were counterstained with DAPI (4′,6-diamidino-2-phenylindole). […] were analyzed with a conventional inverted microscope (Olympus, PlanFl 40×/0.60) or with a confocal microscope equipped with a krypton/argon laser.
To confirm the in vivo […] samples were harvested and stained to visualize HNFα expression, ZO-1 and DAPI staining.

[7] = Bioavailability determination in male C57BL/6 mice; type: in vivo; details: mouse, whole blood, IV 2.0 mg/kg, oral 30.0 mg/kg, IP 30 mg/kg, route of the printed value not stated
Protocol: Bioavailability Determinations. Male C57BL/6 mice were administered N-trans-caffeoyl tyramine or N-transferuloyl tyramine via IV, intraperitoneal or oral route (three mice for each route) (Table 2).
A blood sample from each mouse was drawn at 0.25, 0.5, 1, 2, 4, 6 and 24 hours after administration. An 8 μL aliquot of blood was used for analysis. After adding 200 μL of an internal standard comprising 100 ng/mL Labetalol, 100 ng/mL dexamethasone, 100 ng/mL tolbutamide, 100 ng/mL Verapamil, 100 ng/mL Glyburide, and 100 ng/mL Celecoxib in ACN, the mixture was vortex-mixed and centrifuged at 12000 rpm for 15 minutes at 4° C. to pellet precipitated protein. Four μL of the supernatant was injected for LC-MS/MS analysis. Bioavailability (%) was calculated using AUC0-inf (% AUCExtra<20%) or AUC0-last(% AUCExtra>20%) with nominal dose.

[8] = tested on: Intestine; assay: Histological examination of intestine, gross morphology; type: in vivo; details: mice treated with DMSO or N-trans-caffeoyltyramine
Description: as §1

[9] = tested on: CaCo-2 cells; assay: TNF-α induced tight junction damage in CaCo-2 monolayer, ZO-1 staining; type: cell-based; details: 200 ng or 300 ng TNF-α
Protocol: TNF-α is an inflammatory cytokine that increases intestinal tight junction permeability. To analyze the effect of N-trans-caffeoyltyramine on tight junctions, 200 ng or 300 ng TNF-α was added to a monolayer of epithelial CaCo-2 cells to induced tight junction damage. After TNF-α exposure, N-trans-caffeoyltyramine was added and tight junction formation was determined by antibody staining for zonula occludens (ZO) −1. […] The CaCo-2 cells was sorted for high TNF-α expression with compromised integrity of tight junctions. Increasing concentration of exogenous TNF-α from 200 ng to 300 ng reduced ZO-1 staining.

[10] = tested on: Paneth cells; assay: Number of Paneth cells in the intestine of DIO mice; type: in vivo; details: DIO mice (high fat diet)
Description: FIG. 5 illustrates paneth cells are increased in the intestine of DIO mice treated with NCT.
as §1

[11] = target: T1, HNF4α; set-up: endogenous in cells; host or cells: T6PNE engineered pancreatic cells; details: Kiselyuk, et al. (2012); cited from earlier work
[12] = target: T1, HNF4α; details: cited from earlier work

Structure (SMILES): CCN(CCCc1ccccc1)CCCc1ccccc1 [Alverine]
- Activity as HNF4α activators [1]: activity as HNF4α activators

Structure (SMILES): CC(Cc1cccc(C(F)(F)F)c1)NCCOC(=O)c1ccccc1 (stereo not shown) [Benfluorex]
- Activity as HNF4α activators [1]: activity as HNF4α activators

Structure (SMILES): O=C(/C=C\c1ccc(O)c(O)c1)NCCc1ccc(O)cc1 [N-cis-caffeoyltyramine]
- HNF4α modulator activity in screening [2]: able to act as HNF4α modulators

Structure (SMILES): O=C(/C=C/c1ccc(O)cc1)NCCc1ccc(O)c(O)c1 [N-coumaroyldopamine]
- HNF4α gene expression (quantitative PCR) [3]: inactive

Structure (SMILES): O=C(/C=C/c1ccc(O)c(O)c1)NCCc1ccc(O)cc1 [N-trans-caffeoyltyramine]
- HNF4α expression in intestine [4]: large increase in HNF4α expression throughout
- HNF4α expression in intestine ([4]; listed as NCT): increased
- pH Stability [5]: Acid Stable
- HNF4α expression in intestinal lining [6]: induced HNF4α expression in the intestinal lining
- bioavailability [7]: ~11%
- Gross morphological appearance of intestine [8]: unchanged
- Effect on TNF-α reduced ZO-1 staining (tight junctions) [9]: reversed the effects of TNF-α on ZO-1
- Potency in activating HNF4α compared with Alverine ([2]; FIG. 1, alverine 20 μM positive control): roughly an order-of-magnitude more potent than Alverine
- HNF4α modulator activity in screening [2]: able to act as HNF4α modulators
- Number of Paneth cells [10]: complete recovery in the number of Paneth cells
- Number of Paneth cells ([10]; listed as NCT): increased
- HNF4α gene expression (quantitative PCR) [3]: upregulated

Structure (SMILES): COc1cc(/C=C/C(=O)NCC(O)c2ccc(O)cc2)ccc1O (stereo not drawn) [N-trans-feruloyloctopamine]
- HNF4α gene expression (quantitative PCR) [3]: inactive

Structure (SMILES): COc1cc(/C=C/C(=O)NCCc2ccc(O)cc2)ccc1O [N-trans-feruloyltyramine]
- pH Stability [5]: Stable
- bioavailability [7]: ~7%
- HNF4α modulator activity in screening [2]: able to act as HNF4α modulators
- HNF4α gene expression (quantitative PCR) [3]: upregulated

Structure (SMILES): COc1cc(/C=C\C(=O)NCCc2ccc(O)cc2)ccc1O [cis-feruloyltyramine]
- HNF4α gene expression (quantitative PCR) [3]: inactive

Structure (SMILES): CCN(CCCCc1ccccc1)CCc1ccccc1 [compound 1]
- Insulin activation in insulin promoter-reporter screen [11]: insulin activator
- HNF4α agonistic activity in OTC promoter assay [12]: HNF4α agonistic activity

Structure (SMILES): O=C(/C=C/c1ccc(O)cc1)NCCc1ccc(O)cc1 [p-coumaroyltyramine]
- pH Stability [5]: Acid Stable
- HNF4α modulator activity in screening [2]: able to act as HNF4α modulators
- HNF4α gene expression (quantitative PCR) [3]: upregulated

Structure (SMILES): O=C(/C=C/c1ccc(O)cc1)NCC(O)c1ccc(O)cc1 (stereo not shown) [pcoumaroyloctopamine]
- HNF4α gene expression (quantitative PCR) [3]: inactive
